Among the data in patent US8178570B2, “Tie-2 modulators and methods of use” (Exelixis, Inc., priority 2003, dated 2012) are IC50 values, retold here.

Some results are limits rather than exact numbers.

Chain of Tie-2 (Q02763 23-1124): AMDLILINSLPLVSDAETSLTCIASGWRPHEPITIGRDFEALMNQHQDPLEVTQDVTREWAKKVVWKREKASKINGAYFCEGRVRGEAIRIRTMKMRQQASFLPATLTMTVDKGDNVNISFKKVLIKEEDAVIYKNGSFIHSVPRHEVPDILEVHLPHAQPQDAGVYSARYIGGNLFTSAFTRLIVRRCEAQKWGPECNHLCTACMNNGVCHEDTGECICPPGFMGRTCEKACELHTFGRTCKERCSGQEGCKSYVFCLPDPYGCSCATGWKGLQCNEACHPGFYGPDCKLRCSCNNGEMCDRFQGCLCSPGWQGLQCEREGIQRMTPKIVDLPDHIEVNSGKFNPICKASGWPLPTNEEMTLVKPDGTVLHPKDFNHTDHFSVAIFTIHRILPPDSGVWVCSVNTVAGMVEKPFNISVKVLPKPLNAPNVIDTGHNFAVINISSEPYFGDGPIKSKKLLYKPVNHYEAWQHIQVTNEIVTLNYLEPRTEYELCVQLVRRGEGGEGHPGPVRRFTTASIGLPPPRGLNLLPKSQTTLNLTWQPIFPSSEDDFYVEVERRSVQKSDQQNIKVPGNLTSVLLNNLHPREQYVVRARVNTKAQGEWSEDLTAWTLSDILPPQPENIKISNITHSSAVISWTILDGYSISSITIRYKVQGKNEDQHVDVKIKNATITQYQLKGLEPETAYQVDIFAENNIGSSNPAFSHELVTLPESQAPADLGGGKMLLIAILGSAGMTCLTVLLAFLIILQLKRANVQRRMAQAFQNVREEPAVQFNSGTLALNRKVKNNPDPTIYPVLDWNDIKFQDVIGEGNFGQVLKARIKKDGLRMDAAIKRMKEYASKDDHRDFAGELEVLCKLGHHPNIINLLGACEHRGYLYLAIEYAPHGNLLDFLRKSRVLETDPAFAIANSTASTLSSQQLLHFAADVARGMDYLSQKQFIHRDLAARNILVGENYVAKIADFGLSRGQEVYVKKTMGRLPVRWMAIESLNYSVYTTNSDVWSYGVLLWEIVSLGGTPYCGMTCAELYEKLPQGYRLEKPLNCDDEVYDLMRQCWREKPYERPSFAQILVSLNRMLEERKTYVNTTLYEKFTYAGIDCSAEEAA

This test has as its target Tie-2 (Homo sapiens, UniProt Q02763). Nature of the test: Tie-2 tyrosine kinase activity: kinase-dependent ATP consumption (pEY substrate, luciferase/luciferin chemiluminescence) or 33P-ATP incorporation into substrate. Type of test: biochemical. The settings on record: Tie-2 (human enzyme) inhibition, Table 2, class symbols A-D. The procedure:
One measure of inhibition is Ki. […] The Ki for a compound is determined from the IC50 based on three assumptions. First, only one compound molecule binds to the enzyme and there is no cooperativity. […] Third, the enzymatic rate of the enzyme-inhibitor complex is zero. The rate (i.e., compound concentration) data are fitted to the equation:
[formula] where V is the observed rate, Vmax, is the rate of the free enzyme, I0 is the inhibitor concentration, E0 is the enzyme concentration, and Kd is the dissociation constant of the enzyme-inhibitor complex.
Tyrosine kinase activity is determined by 1) measurement of kinase-dependent ATP consumption by in the presence of a generic substrate such as polyglutamine, tyrosine (pEY), by luciferase/luciferin-mediated chemiluminescence or; 2) incorporation of radioactive phosphate derived from ^33P-ATP into a generic substrate which has been absorbed onto the well surface of polystyrene microtiter plates. Phosphorylated substrate products are quantified by scintillation spectrometry.
Inhibition is indicated as IC50 with following key: A=IC50 less than 50 nM, B=IC50 greater than 50 nM, but less than or equal to 1000 nM, C=IC50 greater than 1000 nM, but less than 10,000 nM, and D=IC50 10,000 nM or greater. The abbreviation for human enzyme, Tie-2, is defined as tyrosine kinase with immunoglobulin and EGF repeats.
Usually IC50 stands for the concentration that gives 50% inhibition. High values mean weaker potency in that assay, low ones greater potency in that assay. In the case of `O=C(Cc1cccc2ccccc12)N(CCn1cnc(-c2ccncc2)n1)C1CCCC1` [Entry 44, N-cyclopentyl-2-naphthalen-1-yl-N-[2-(3-pyridin-4-yl-1H-1,2,4-triazol-1-yl)ethyl]acetamide], the IC50 is under 50 nM.
Under `O=C(Cc1cccc2ccccc12)N(CCn1nc(-c2ccncc2)nc1-c1cccc(C(F)(F)F)c1)C1CCCC1` [Entry 45, N-cyclopentyl-2-naphthalen-1-yl-N-(2-{3-pyridin-4-yl-5-[3-(trifluoromethyl)phenyl]-1H-1,2,4-triazol-1-yl}ethyl)acetamide] stands under 50 nM.
The compound `O=C(Cc1cccc2ccccc12)N(CCn1nc(-c2cccc(C(F)(F)F)c2)nc1-c1ccncc1)C1CCCC1` [Entry 46, N-cyclopentyl-2-naphthalen-1-yl-N-(2-{5-pyridin-4-yl-3-[3-(trifluoromethyl)phenyl]-1H-1,2,4-triazol-1-yl}ethyl)acetamide] yielded an IC50 of at least 10000 nM.
Under `O=C(Cc1cccc2ccccc12)N(CCn1nc(-c2ccncc2)nc1-c1cc(Cl)cc(Cl)c1)C1CCCC1` [Entry 47, N-cyclopentyl-N-{2-[5-(3,5-dichlorophenyl)-3-pyridin-4-yl-1H-1,2,4-triazol-1-yl]ethyl}-2-naphthalen-1-ylacetamide] stands under 50 nM; under `COc1ccc(-c2nc(-c3ccncc3)nn2CCN(C(=O)Cc2ccc3ccccc3c2)C2CCCC2)cc1Cl` [Entry 48, N-(2-{5-[3-chloro-4-(methyloxy)phenyl]-3-pyridin-4-yl-1H-1,2,4-triazol-1-yl}ethyl)-N-cyclopentyl-2-naphthalen-2-ylacetamide], at least 10000 nM; under `O=C(Cc1cccc2ccccc12)N(CCc1n[nH]c(-c2ccncc2)n1)C1CCCC1` [Entry 49, N-cyclopentyl-2-naphthalen-1-yl-N-[2-(5-pyridin-4-yl-1H-1,2,4-triazol-3-yl)ethyl]acetamide], under 50 nM.
Under `O=C(Cc1cccc2ccccc12)N(CCn1nc(-c2ccncc2)nc1-c1ccccc1)C1CCCC1` [Entry 50, N-cyclopentyl-2-naphthalen-1-yl-N-[2-(5-phenyl-3-pyridin-4-yl-1H-1,2,4-triazol-1-yl)ethyl]acetamide] stands under 50 nM; under `O=C(Cc1cccc2ccccc12)N(CCn1nc(-c2ccccc2)nc1-c1ccncc1)C1CCCC1` [Entry 51, N-cyclopentyl-2-naphthalen-1-yl-N-[2-(3-phenyl-5-pyridin-4-yl-1H-1,2,4-triazol-1-yl)ethyl]acetamide], 1000 to 10000 nM; under `O=C(Cc1cccc2ccccc12)N(CCc1nc(-c2ccncc2)no1)C1CCCC1` [Entry 52, N-cyclopentyl-2-naphthalen-1-yl-N-[2-(3-pyridin-4-yl-1,2,4-oxadiazol-5-yl)ethyl]acetamide], 50 to 1000 nM.
In turn, `COc1ccc(-c2nc(-c3ccnc(Cl)c3)nn2CCN(C(=O)Cc2cccc3ccccc23)C2CCCC2)cc1Cl` [Entry 53, N-{2-[5-[3-chloro-4-(methyloxy)phenyl]-3-(2-chloropyridin-4-yl)-1H-1,2,4-triazol-1-yl]ethyl}-N-cyclopentyl-2-naphthalen-1-ylacetamide] registered an IC50 of at least 10000 nM.
To `COc1ccc(-c2nc(-c3ccncc3)[nH]c2CCN(C(=O)Cc2cccc3ccccc23)C2CCCC2)cc1` [Entry 54, N-cyclopentyl-N-(2-{4-[4-(methyloxy)phenyl]-2-pyridin-4-yl-1H-imidazol-5-yl}ethyl)-2-naphthalen-1-ylacetamide] belongs 50 to 1000 nM; to `COc1ccc(-c2nc(-c3ccncc3)n(CCN(C(=O)Nc3cccc4ccccc34)C3CCCC3)n2)cc1Cl` [Entry 55, N-(2-{3-[3-chloro-4-(methyloxy)phenyl]-5-pyridin-4-yl-1H-1,2,4-triazol-1-yl}ethyl)-N-cyclopentyl-N′-naphthalen-1-ylurea], at least 10000 nM.
Take `O=C(Cc1cccc2ccccc12)N(CCn1nc(-c2ccncc2)nc1-c1cccc(F)c1)C1CCCC1` [Entry 56, N-cyclopentyl-N-{2-[5-(3-fluorophenyl)-3-pyridin-4-yl-1H-1,2,4-triazol-1-yl]ethyl}-2-naphthalen-1-ylacetamide]: the IC50 was under 50 nM.
